According to ChEMBL document CHEMBL1150188, “Chemistry of Sponges, X. New Sesquiterpenes from a Marine Sponge of the Genus Eurypon” (J Nat Prod, 1990):
The source made the active and inactive calls. No cut-off for these calls is given here.

Tested on: Escherichia coli
Assay: Antimicrobial activity against Escherichia coli at 100 ug/disk by standard disk assay
Assay type: functional, organism-based

CC1(C)C[C@@H]2C3=C[C@@H](O)C[C@](C)(CC[C@@H]21)C3
Activity: Active
